Assay: Stability under selective acid hydrolysis in pH 5 buffer
Assay type: physicochemical
Details: pH 5 buffer solution
Description: To a stirred suspension comprising the benzyl protected intermediate (1.0 equiv.), 5% Pd/C (0.07 equiv.) and methanol is added 55% hydrazine hydrate (˜20 equiv.). The reaction mixture is slowly heated and maintained at reflux under an inert atmosphere until TLC analysis indicates complete consumption of starting material. Reaction mixture is cooled to room temperature, filtered through celite to remove catalyst and volatiles removed in-vacuo. Residue is then subjected to low pressure column chromatography with 7:3 hexane:ethyl acetate as eluent. Composition and purity of isolated white solid as determined by ^1H and ^13C NMR is consistent with the brominated compound shown.

Question: Which “stability to acid hydrolysis” value does the source give for `Oc1ccc(O[C@H]2OCCC[C@@H]2Br)cc1` [Iii] here?
Answer: stable under these conditions
